Results published in ChEMBL document CHEMBL1759939, “Novel analogues of ketamine and phencyclidine as NMDA receptor antagonists” (Bioorg Med Chem Lett, 2011).

Tests used:
[1] = biological target: Glutamate NMDA receptor; GRIN1/GRIN2B (Homo sapiens, UniProt Q05586+Q13224); assay: Inhibition of human recombinant NR1/NR2B receptor expressed in U2OS assessed as change in intracellular calcium level by FLIPR assay; type: cell-based; parameters: concentration or dose not given beside the values
[2] = biological target: Glutamate NMDA receptor; GRIN1/GRIN2A (Homo sapiens, UniProt Q05586+Q12879); assay: Inhibition of human recombinant NR1/NR2A receptor expressed in U2OS assessed as change in intracellular calcium level by FLIPR assay; type: cell-based; parameters: concentration or dose not given beside the values

Row | Structure (SMILES) | Activity [1] [%] | IC50 [1] [µM] | Activity [2] [%] | IC50 [2] [µM]
1 | CNC1(c2ccccc2Cl)CCCCC1=O (stereo not given) [KETAMINE] | > 100 | 5.01 | > 100 | 1.26
2 | NC1(c2ccccc2Cl)CCCNC1=O (stereo not given) | 80 | > 50.1 | 80 | > 50.1
3 | FC(F)(F)COc1cccc(C2(N3CCCCC3)CCCCC2)c1 | 94 | 31.6 | 94 | 5.01
4 | CCCCOc1cccc(C2(N3CCCCC3)CCCCC2)c1 | 94 | 20 | 94 | 2
5 | COc1ccc(C2(N3CCCCC3)CCCCC2)cc1 | 94 | 15.8 | 94 | 3.98
6 | c1ccc(C2(N3CCCCC3)CCCCC2)nc1 | 94 | 7.94 | 94 | 2.51
7 | O=C1NCCCC1(c1ccccc1)N1CCCCC1 (stereo not given) | 80 | 158 | 80 | 25.1
8 | O=C1NCCC1(c1ccccc1)N1CCCCC1 (stereo not given) | 80 | 63.1 | 80 | 25.1
9 | c1ccc(C2(N3CCCCC3)CCCCC2)cc1 [PHENCYCLIDINE] | > 100 | 1.26 | > 100 | 0.398
10 | CN1CCC(c2ccccc2)(N2CCCCC2)C1=O (stereo not given) | 80 | 251 | 80 | 50.1
11 | CNC1(c2ccc(OC)cc2Cl)CCCCC1=O (stereo not given) | 80 | 20 | 80 | 10
12 | CNC1(c2ccccc2Cl)CCCNC1=O (stereo not given) | 80 | > 251 | 80 | 39.8
13 | CCCCOc1ccc(C2(N3CCCCC3)CCCCC2)cc1 | 94 | > 50.1 | 94 | > 50.1
14 | CNC1(c2ccccc2Cl)CCCN(C)C1=O (stereo not given) | 80 | > 251 | 80 | > 251
15 | CN1CCCC(c2ccccc2)(N2CCCCC2)C1=O (stereo not given) | 80 | > 251 | 80 | 3.16
